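Grown in 96-well plates, cells were treated for 48 hours with each compound at five concentrations. Insufficient inhibition: endpoint recorded as highest concentration tested. Abbreviation: GI50, concentration required for 50% inhibition of growth. TGI: total growth inhibition.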 Where only a bound is given, the exact number is not on record here.

The record followed here is PubChem BioAssay (NCI).

Some test systems named below: 786-0 renal; UACC-62 melanoma; HCT-116 colon; LOX IMVI melanoma; COLO 205 colon; SNB-75 CNS; NCI-H460 lung; HOP-62 NSCLC; DU-145 prostate; HCC-2998 colon.
Common to all, as to test: growth of human tumour cells (NCI), 48 h

Consider `N#C/C(=C1\OC(=N)C(c2ccc(Cl)cc2Cl)C1=O)c1ccc(Cl)cc1Cl` (stereo not given), for which the TGI in the test on 786-0 renal, with UACC-62 melanoma, in the test with HCT-116 colon, in the test with LOX IMVI melanoma, in the test with COLO 205 colon and in the test with SNB-75 CNS was above 100 µM throughout.

Consider `O=c1[nH]c(=S)[nH]c(-c2ccccc2)c1Cc1c(O)ccc2ccccc12`, for which the TGI with NCI-H460 lung is above 100 µM; in the test on 786-0 renal it was above 100 µM; in the test on UACC-62 melanoma, 52.4 µM; in the test with HOP-62 NSCLC, above 100 µM; in the test on HCT-116 colon, 74.4 µM; in the test with LOX IMVI melanoma, above 100 µM. The TGI in the test with COLO 205 colon is 42.1 µM; in the test on DU-145 prostate it was above 100 µM; in the test on SNB-75 CNS it was 65 µM.

For `N#CC1C(N)=NNC12Nc1ccccc1S2` (stereo not given), the GI50 in the test on NCI-H460 lung is 36.6 µM; in the test with 786-0 renal, 63.4 µM; with UACC-62 melanoma, 12.2 µM; in the test with HOP-62 NSCLC it was 30.3 µM; in the test on HCT-116 colon, 11.5 µM; in the test on LOX IMVI melanoma it was 18.4 µM. In addition, the figures for the GI50 with COLO 205 colon and in the test with DU-145 prostate were 26.5 µM and 15.6 µM, respectively. In addition, the TGI was above 100 µM in the test with NCI-H460 lung; above 100 µM with 786-0 renal; 30.3 µM in the test on UACC-62 melanoma; above 100 µM in the test on HOP-62 NSCLC; 35.9 µM in the test on HCT-116 colon; 37.6 µM in the test on LOX IMVI melanoma. Further, the TGI in the test on COLO 205 colon stood at 82.5 µM; with DU-145 prostate it was 55.3 µM.

Regarding `O=C1C(Nc2cccc(O)c2)=C(Sc2ccccc2)C(=O)N1Cc1ccccc1`, the GI50 in the test with NCI-H460 lung is 11.3 µM; with 786-0 renal, 20.7 µM; in the test on UACC-62 melanoma it was 5.3 µM; with HOP-62 NSCLC, 14.8 µM; in the test with HCT-116 colon, 9.87 µM; in the test on LOX IMVI melanoma it was 13 µM. For the same molecule, the figures for the GI50 in the test on COLO 205 colon and in the test with DU-145 prostate were 17 µM and 16.2 µM, respectively. The TGI with NCI-H460 lung worked out at 29 µM; with 786-0 renal it was 39.4 µM; with UACC-62 melanoma it was 18.9 µM; in the test on HOP-62 NSCLC, 28.8 µM; with HCT-116 colon, 21.5 µM; in the test with LOX IMVI melanoma it was 39.4 µM. Besides, the TGI in the test with COLO 205 colon amounted to 35.9 µM; with DU-145 prostate, 33.3 µM.

Consider `Nc1nc(C(=O)O)c(N=Nc2ccccc2)c(=O)[nH]1`, for which the TGI with NCI-H460 lung, with 786-0 renal, in the test with UACC-62 melanoma, with HOP-62 NSCLC, in the test with HCT-116 colon and in the test on LOX IMVI melanoma was above 100 µM each time. For the same molecule, the TGI in the test with COLO 205 colon, with DU-145 prostate and with SNB-75 CNS was above 100 µM in each case.

For `CC(=O)OCC(CC[CH2][Sn]([Cl])([Cl])[c]1ccccc1)OC(C)=O` (stereo not given), the GI50 in the test with NCI-H460 lung is 19.6 µM; with 786-0 renal it was 19.1 µM; with UACC-62 melanoma it was 12.6 µM; in the test with HCC-2998 colon, 28.2 µM; in the test on HOP-62 NSCLC it was 23.9 µM; with HCT-116 colon, 18 µM. For the same molecule, the GI50 was 16.8 µM in the test with LOX IMVI melanoma, 17.3 µM in the test with COLO 205 colon and 55.8 µM with SNB-75 CNS. Besides, the TGI with NCI-H460 lung is 38.8 µM; in the test on 786-0 renal, 38 µM; in the test on UACC-62 melanoma, 25.6 µM; in the test on HCC-2998 colon, 83.1 µM; in the test with HOP-62 NSCLC it was 46.8 µM; with HCT-116 colon, 31.9 µM. For the same molecule, the results for the TGI in the test with LOX IMVI melanoma, in the test on COLO 205 colon and in the test on SNB-75 CNS were 31.6 µM, 31.2 µM and above 100 µM, respectively.

On to `CC(C)OC(=O)C1Cc2c([nH]c3ccccc23)C(c2ccccc2)N1` (stereo not given), for which the TGI with NCI-H460 lung is above 100 µM; in the test with 786-0 renal it was above 100 µM; in the test with UACC-62 melanoma, above 100 µM; with HCC-2998 colon, above 100 µM; with HOP-62 NSCLC, 69.9 µM; in the test on HCT-116 colon, above 100 µM. Further, the TGI is above 100 µM with LOX IMVI melanoma, above 100 µM in the test with COLO 205 colon and 86.5 µM with SNB-75 CNS.

For `C/C(=N\NC(=O)C(N)=O)c1c(O)cc(C)oc1=O`, the TGI in the test with NCI-H460 lung, with 786-0 renal, with UACC-62 melanoma, in the test with HCC-2998 colon, in the test with HOP-62 NSCLC and in the test with HCT-116 colon was above 100 µM throughout. The TGI in the test on LOX IMVI melanoma and in the test on SNB-75 CNS was above 100 µM each time.

On to `C[P+]1(c2ccccc2)CCCCC1`, for which the TGI in the test with NCI-H460 lung, in the test on 786-0 renal, in the test with UACC-62 melanoma, with HCC-2998 colon, with HOP-62 NSCLC and in the test with LOX IMVI melanoma was above 100 µM throughout. The TGI in the test with COLO 205 colon and in the test on SNB-75 CNS was above 100 µM each time.

For the molecule `CC(=O)CC(=O)CCC(=O)Nc1cccc(C(F)(F)F)c1`, the TGI with NCI-H460 lung, in the test on 786-0 renal, in the test on UACC-62 melanoma, in the test on HCC-2998 colon, in the test with HOP-62 NSCLC and in the test on HCT-116 colon was above 100 µM each time. Moreover, the TGI in the test with LOX IMVI melanoma and in the test with COLO 205 colon was above 100 µM each time.

For `C=C1C=CC2(Br)OC3CC(C)(Cl)C(Br)CC13C2(C)C` (stereo not given), the TGI is 46 µM in the test with NCI-H460 lung; above 100 µM in the test on 786-0 renal; 34.3 µM in the test on UACC-62 melanoma; 42.7 µM with HCC-2998 colon; 48 µM with HOP-62 NSCLC; 28.5 µM in the test on HCT-116 colon. Further, the TGI in the test on LOX IMVI melanoma was determined as 33.8 µM; in the test on COLO 205 colon, 30.9 µM; with SNB-75 CNS it was 77.7 µM.

As to `O=C(Cc1ccccc1)C(c1ccccc1)S(=O)(=O)c1ccccc1` (stereo not given), the TGI in the test on NCI-H460 lung, in the test with 786-0 renal, in the test with UACC-62 melanoma, in the test on HCC-2998 colon, in the test with HOP-62 NSCLC and in the test on HCT-116 colon was above 100 µM in each case. The TGI with LOX IMVI melanoma, with COLO 205 colon and with SNB-75 CNS was above 100 µM throughout.
